Data on 10 molecules can be found in patent publication US10676477B2, “Factor XIa macrocycle inhibitors bearing a non-aromatic P2' group” (BRISTOL-MYERS SQUIBB COMPANY, priority 2015, dated 2020).

For series [1] the following is noted: rcm bond, DCE, 50.0 °C.
For series [2], the target named is T1, human plasma kallikrein (Homo sapiens, UniProt P03952).
T1 construct: purchased Enzyme Research Laboratories
The series can be described thus: Plasma kallikrein enzyme inhibition assay (chromogenic substrate S-2302), Ki. The series is classed as biochemical. The note with it: purified human plasma kallikrein, substrate S-2302, pH 7.5. On the procedure:
(§1) The effectiveness of compounds of the present invention as inhibitors of the coagulation Factors XIa, VIIa, IXa, Xa, XIIa, plasma kallikrein chymotrypsin, trypsin, or thrombin, can be determined using a relevant purified serine protease, respectively, and an appropriate synthetic substrate. The rate of hydrolysis of the chromogenic or fluorogenic substrate by the relevant serine protease was measured both in the absence and presence of compounds of the present invention. […] A decrease in the rate of absorbance or fluorescence change in the presence of inhibitor is indicative of enzyme inhibition. Such methods are known to one skilled in the art. The results of this assay are expressed as the inhibitory constant, Ki.
Plasma kallikrein determinations were made in 0.1 M sodium phosphate buffer at a pH of 7.5 containing 0.1-0.2 M sodium chloride and 0.5% PEG 8000. Determinations were made using purified human plasma kallikrein (Enzyme Research Laboratories) at a final assay concentration of 200 pM and the synthetic substrate S-2302 (H-(D)-Pro-Phe-Arg-pNA; CHROMOGENIX®) at a concentration of 0.00008-0.0004 M.
(§2) The Michaelis constant, Km, for substrate hydrolysis by each protease, was determined at 25° C. or 37° C. in the absence of inhibitor. Values of Ki were determined by allowing the protease to react with the substrate in the presence of the inhibitor. Reactions were allowed to go for periods of 20-180 minutes (depending on the protease) and the velocities (rate of absorbance or fluorescence change versus time) were measured. The following relationships were used to calculate Ki values: (Vmax*S)/(Km+S) (vo−vs)/vs=I/(Ki*(1+S/Km)) for a competitive inhibitor with one binding site; or vs/vo=A+((B−A)/(1+(IC50/(I)^n)); and Ki=IC50/(1+S/Km) for a competitive inhibitor where: […]

Series [3] addresses T2, human Factor XIa (Homo sapiens, UniProt P03951).
T2 construct: purchased Haematologic Technologies
In words: Factor XIa enzyme inhibition assay (chromogenic substrate S-2366), Ki. Type of series: biochemical. The settings on record: purified human Factor XIa, substrate S-2366, pH 7.4. As for the experimental part:
as §1
Factor XIa determinations were made in 50 mM HEPES buffer at pH 7.4 containing 145 mM NaCl, 5 mM KCl, and 0.1% PEG 8000 (polyethylene glycol; JT Baker or Fisher Scientific). Determinations were made using purified human Factor XIa at a final concentration of 25-200 pM (Haematologic Technologies) and the synthetic substrate S-2366 (pyroGlu-Pro-Arg-pNA; CHROMOGENIX® or AnaSpec) at a concentration of 0.0002-0.001 M.
as §2

Structures are written as SMILES. Where a name gives a salt, the structure may show the parent alone. Read-outs that look alike come from different tables or passages of the source.

T1 sequence (P03952 391-638 limits assumed): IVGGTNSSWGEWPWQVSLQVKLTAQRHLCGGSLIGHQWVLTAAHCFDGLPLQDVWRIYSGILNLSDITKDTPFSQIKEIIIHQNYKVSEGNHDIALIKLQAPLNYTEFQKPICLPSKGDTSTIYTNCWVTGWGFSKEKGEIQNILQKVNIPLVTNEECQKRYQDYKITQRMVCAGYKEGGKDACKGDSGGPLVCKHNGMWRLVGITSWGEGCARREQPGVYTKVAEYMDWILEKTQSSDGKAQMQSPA
T1 sequence (P03952 20-390 partner limits assumed): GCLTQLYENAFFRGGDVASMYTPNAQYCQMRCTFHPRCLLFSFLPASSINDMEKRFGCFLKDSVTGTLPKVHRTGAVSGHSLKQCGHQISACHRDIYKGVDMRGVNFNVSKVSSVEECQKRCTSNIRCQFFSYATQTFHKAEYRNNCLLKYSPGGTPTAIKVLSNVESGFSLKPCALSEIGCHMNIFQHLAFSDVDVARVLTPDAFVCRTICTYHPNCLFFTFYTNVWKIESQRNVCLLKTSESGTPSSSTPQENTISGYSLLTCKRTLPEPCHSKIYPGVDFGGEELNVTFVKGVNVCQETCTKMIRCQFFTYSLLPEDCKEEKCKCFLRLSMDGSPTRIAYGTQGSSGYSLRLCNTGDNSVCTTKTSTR
T2 sequence (P03951 388-625 limits assumed): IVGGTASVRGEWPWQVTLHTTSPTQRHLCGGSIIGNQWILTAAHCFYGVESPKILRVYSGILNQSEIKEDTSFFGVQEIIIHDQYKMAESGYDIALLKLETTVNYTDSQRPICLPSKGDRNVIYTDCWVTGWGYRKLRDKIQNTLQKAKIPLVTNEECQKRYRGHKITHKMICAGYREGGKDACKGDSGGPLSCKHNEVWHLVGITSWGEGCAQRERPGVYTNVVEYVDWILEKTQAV
T2 sequence (P03951 19-387 partner limits assumed): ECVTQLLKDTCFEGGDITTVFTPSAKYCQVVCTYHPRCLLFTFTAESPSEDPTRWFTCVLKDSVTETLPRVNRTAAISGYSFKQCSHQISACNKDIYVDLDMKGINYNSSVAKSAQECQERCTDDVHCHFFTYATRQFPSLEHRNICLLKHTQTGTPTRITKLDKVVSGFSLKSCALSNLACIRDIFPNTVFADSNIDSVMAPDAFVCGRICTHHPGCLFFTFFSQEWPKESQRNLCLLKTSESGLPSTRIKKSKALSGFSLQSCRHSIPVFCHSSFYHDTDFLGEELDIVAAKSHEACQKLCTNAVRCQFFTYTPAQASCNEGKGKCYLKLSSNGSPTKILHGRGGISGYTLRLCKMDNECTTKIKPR

In series [1] (from C=CCCNC(=O)[C@@H](CNC(=O)OC(C)(C)C)Nc1cccc([C@H](CC=C)NC(=O)OCc2ccccc2)c1, 13-membered ring, Grubbs II (20 mol%)/pTsOH.H2O (1 eq), 10.2 mM, 5.0 h), `CC(C)(C)OC(=O)NC[C@H]1Nc2cccc(c2)[C@@H](NC(=O)OCc2ccccc2)C/C=C/CCNC1=O` came in with a ring closure, isolated yield of 37%. As for `CC(C)(C)OC(=O)N1CCN2c3cccc(c3)[C@@H](NC(=O)OCc3ccccc3)C/C=C/CCNC(=O)[C@@H]2C1`, the ring closure, isolated yield in series [1] (from C=CCCNC(=O)[C@@H]1CN(C(=O)OC(C)(C)C)CCN1c1cccc([C@H](CC=C)NC(=O)OCc2ccccc2)c1, 13-membered ring, Grubbs II (40 mol%), 7.55 mM, 5.0 h) came to 93%. In the case of `CC(C)(C)OC(=O)N1CCN2c3cccc(c3)[C@@H](NC(=O)OCc3ccccc3)C/C=C/CNC(=O)[C@H]2C1`, the ring closure, isolated yield in series [1] (from C=CCNC(=O)[C@H]1CN(C(=O)OC(C)(C)C)CCN1c1cccc([C@H](CC=C)NC(=O)OCc2ccccc2)c1, 12-membered ring, Grubbs II (20 mol%), 9.1 mM, 5.0 h) is 38.6%. In the case of `O=C1CN2c3cccc(c3)[C@@H](NC(=O)OCc3ccccc3)CC=CCCNC(=O)C2CN1` (some centres unmarked), the ring closure, isolated yield in series [1] (from C=CCCNC(=O)C1CNC(=O)CN1c1cccc([C@H](CC=C)NC(=O)OCc2ccccc2)c1, 13-membered ring, Grubbs II (20 mol%), 9.0 mM, 2.5 h) was 89%. On to `CC(C)(C)OC(=O)N1CCN2c3cccc(c3)[C@@H](NC(=O)OCc3ccccc3)C/C=C/CCNC(=O)[C@H]2C1`, for which, in series [1] (from C=CCCNC(=O)[C@H]1CN(C(=O)OC(C)(C)C)CCN1c1cccc([C@H](CC=C)NC(=O)OCc2ccccc2)c1, 13-membered ring, Grubbs II (20 mol%), 9.78 mM, 5.0 h), the ring closure, isolated yield was 81%. The Ki is a measure of affinity in units of concentration, obtained from inhibition or displacement. A higher Ki goes with weaker binding. With `CC(C)(C)OC(=O)N1CCN2c3cccc(c3)[C@@H](n3cnc(-c4cc(Cl)ccc4-n4cc(Cl)nn4)cc3=O)CCCCCNC(=O)[C@H]2C1` [Example 8, tert-butyl (7R,15S)-15-{4-[5-chloro-2-(4-chloro-1H-1,2,3-triazol-1-yl)phenyl]-6-oxo-1,6-dihydropyrimidin-1-yl}-8-oxo-2,5,9-triazatricyclo[14.3.1.0^2,7]icosa-1(20),16,18-triene-5-carboxylate], the Ki was 1.09 µM in series [2] and 21 nM in series [3]. Molecule `CC(C)(C)OC(=O)N1CC(=O)N2c3cccc(c3)[C@@H](NC(=O)OCc3ccccc3)CC=CCCNC(=O)[C@H]2C1` (mixture of isomers) came in with a ring closure, isolated yield in series [1] (from C=CCCNC(=O)[C@H]1CN(C(=O)OC(C)(C)C)CC(=O)N1c1cccc([C@H](CC=C)NC(=O)OCc2ccccc2)c1, 13-membered ring, Grubbs II (30 mol%), 9.54 mM, 2.0 h) of 76%. Take `O=C1NCCCCC[C@H](n2cnc(-c3c(-n4cc(Cl)nn4)ccc(Cl)c3F)cc2=O)c2cccc(c2)N2C(=O)CC[C@H]12` [Example 34, (6R,14S)-14-{4-[3-chloro-6-(4-chloro-1H-1,2,3-triazol-1-yl)-2-fluorophenyl]-6-oxo-1,6-dihydropyrimidin-1-yl}-2,8-diazatricyclo[13.3.1.0^2,6]nonadeca-1(19),15,17-triene-3,7-dione]: the Ki in series [2] was 0.134 µM; in series [3] it was 6 nM. In the same order, the values of `O=C1NCCCC[C@H](n2cnc(-c3c(-n4cc(Cl)nn4)ccc(Cl)c3F)cc2=O)c2cc(F)cc(c2)N2C(=O)CC[C@H]12` [Example 32, (6R,13S)-13-{4-[3-chloro-6-(4-chloro-1H-1,2,3-triazol-1-yl)-2-fluorophenyl]-6-oxo-1,6-dihydropyrimidin-1-yl}-16-fluoro-2,8-diazatricyclo[12.3.1.0^2,6]octadeca-1(18),14,16-triene-3,7-dione] are 5.3 µM and 77.5 nM.

As for `NCC[C@H]1Nc2cccc(c2)[C@@H](n2cnc(-c3cc(Cl)ccc3-n3cc(Cl)nn3)cc2=O)CCCCCNC1=O` [Example 27, (3R,11S)-3-(2-aminoethyl)-11-{4-[5-chloro-2-(4-chloro-1H-1,2,3-triazol-1-yl)phenyl]-6-oxo-1,6-dihydropyrimidin-1-yl}-2,5-diazabicyclo[10.3.1]hexadeca-1(16),12,14-trien-4-one hydrochloride], the Ki in series [2] is 14 µM; in series [3], 871 nM.
